These results are taken from publication PMC4506529 (Chemmedchem, 2014).

The target of assay [1] is human C-terminal DNMT3A (a.a. 623-908) (Homo sapiens, UniProt Q9Y6K1). Briefly: DNMT3A restriction-based fluorescence enzyme inhibition assay. Format: biochemical. The conditions noted are these: for inhibition at 20 µM / inhibition at 10 µM / inhibition at 32 µM: read-out: Inhibition [%] of DNMT3A catalytic activity; for Inhibition [%] of DNMT3A catalytic activity: mean±SEM where given, otherwise single determination.

In assay [2] the test system is luciferase reporter under control of methylated CMV promoter in KG-1 cells. The experiment in a line: CMV-luc reexpression in KG-1 cells. The assay is classed as cell-based, human. The conditions noted are these: 24 h; for Fold reactivation of luciferase (CMV-luc): vs untreated cells, mean±SEM.
Assay [3] relates to DNMT1. Conditions: compared with SGI-1027; cited from earlier work.
In assay [4] the target is hDNMT1 (Homo sapiens, UniProt P26358). Briefly: DNMT1 [methyl-3H]SAM FlashPlate assay. The assay is classed as biochemical.
Assay [5] deals with T1, histone lysine methyltransferases G9a (Homo sapiens, UniProt Q96KQ7).
T1 sequence (Q96KQ7 1-1210): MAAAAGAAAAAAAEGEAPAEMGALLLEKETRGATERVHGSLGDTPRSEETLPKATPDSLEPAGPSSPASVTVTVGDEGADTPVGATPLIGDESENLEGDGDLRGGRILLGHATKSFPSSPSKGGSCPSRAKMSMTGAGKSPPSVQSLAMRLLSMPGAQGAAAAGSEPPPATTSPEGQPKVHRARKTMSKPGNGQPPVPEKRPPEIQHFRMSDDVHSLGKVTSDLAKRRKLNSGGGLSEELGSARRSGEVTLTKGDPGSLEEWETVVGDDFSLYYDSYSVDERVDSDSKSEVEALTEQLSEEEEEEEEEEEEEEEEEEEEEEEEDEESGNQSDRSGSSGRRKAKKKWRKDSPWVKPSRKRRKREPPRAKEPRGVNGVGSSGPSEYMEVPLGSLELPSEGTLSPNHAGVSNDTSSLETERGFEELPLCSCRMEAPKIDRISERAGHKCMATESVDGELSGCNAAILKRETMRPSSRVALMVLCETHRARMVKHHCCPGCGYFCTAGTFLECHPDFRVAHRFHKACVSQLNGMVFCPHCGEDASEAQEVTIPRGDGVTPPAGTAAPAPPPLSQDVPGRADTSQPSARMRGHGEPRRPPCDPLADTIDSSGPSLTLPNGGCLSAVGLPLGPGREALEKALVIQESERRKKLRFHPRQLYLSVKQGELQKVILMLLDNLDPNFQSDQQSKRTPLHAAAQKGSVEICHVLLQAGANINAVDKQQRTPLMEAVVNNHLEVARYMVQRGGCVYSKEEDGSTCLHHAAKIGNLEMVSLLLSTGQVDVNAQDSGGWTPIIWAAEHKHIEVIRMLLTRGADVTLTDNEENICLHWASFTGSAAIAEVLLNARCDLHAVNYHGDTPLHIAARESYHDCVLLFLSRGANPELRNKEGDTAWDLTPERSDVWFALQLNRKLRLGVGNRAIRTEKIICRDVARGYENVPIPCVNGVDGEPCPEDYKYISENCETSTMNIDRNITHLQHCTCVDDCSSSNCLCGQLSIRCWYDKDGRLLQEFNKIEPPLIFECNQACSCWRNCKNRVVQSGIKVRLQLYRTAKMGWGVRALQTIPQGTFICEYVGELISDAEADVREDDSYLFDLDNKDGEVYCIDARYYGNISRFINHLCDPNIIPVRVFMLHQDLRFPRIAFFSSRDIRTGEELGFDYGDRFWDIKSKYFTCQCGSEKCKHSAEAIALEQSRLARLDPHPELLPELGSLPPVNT
The experiment in a line: G9A inhibition assay. The assay is classed as biochemical.

Bounds are passed on as bounds.

Sequence of human C-terminal DNMT3A (a.a. 623-908) (Q9Y6K1 627-912): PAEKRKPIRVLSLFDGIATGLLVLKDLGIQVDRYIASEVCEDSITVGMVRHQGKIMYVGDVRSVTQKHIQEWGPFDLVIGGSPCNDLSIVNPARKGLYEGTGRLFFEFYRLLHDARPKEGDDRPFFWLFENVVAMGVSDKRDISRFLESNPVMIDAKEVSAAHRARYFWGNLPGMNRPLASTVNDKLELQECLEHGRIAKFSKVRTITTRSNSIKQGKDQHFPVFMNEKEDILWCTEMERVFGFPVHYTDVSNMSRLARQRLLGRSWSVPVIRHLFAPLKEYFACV
Sequence of hDNMT1 (P26358 whole entry): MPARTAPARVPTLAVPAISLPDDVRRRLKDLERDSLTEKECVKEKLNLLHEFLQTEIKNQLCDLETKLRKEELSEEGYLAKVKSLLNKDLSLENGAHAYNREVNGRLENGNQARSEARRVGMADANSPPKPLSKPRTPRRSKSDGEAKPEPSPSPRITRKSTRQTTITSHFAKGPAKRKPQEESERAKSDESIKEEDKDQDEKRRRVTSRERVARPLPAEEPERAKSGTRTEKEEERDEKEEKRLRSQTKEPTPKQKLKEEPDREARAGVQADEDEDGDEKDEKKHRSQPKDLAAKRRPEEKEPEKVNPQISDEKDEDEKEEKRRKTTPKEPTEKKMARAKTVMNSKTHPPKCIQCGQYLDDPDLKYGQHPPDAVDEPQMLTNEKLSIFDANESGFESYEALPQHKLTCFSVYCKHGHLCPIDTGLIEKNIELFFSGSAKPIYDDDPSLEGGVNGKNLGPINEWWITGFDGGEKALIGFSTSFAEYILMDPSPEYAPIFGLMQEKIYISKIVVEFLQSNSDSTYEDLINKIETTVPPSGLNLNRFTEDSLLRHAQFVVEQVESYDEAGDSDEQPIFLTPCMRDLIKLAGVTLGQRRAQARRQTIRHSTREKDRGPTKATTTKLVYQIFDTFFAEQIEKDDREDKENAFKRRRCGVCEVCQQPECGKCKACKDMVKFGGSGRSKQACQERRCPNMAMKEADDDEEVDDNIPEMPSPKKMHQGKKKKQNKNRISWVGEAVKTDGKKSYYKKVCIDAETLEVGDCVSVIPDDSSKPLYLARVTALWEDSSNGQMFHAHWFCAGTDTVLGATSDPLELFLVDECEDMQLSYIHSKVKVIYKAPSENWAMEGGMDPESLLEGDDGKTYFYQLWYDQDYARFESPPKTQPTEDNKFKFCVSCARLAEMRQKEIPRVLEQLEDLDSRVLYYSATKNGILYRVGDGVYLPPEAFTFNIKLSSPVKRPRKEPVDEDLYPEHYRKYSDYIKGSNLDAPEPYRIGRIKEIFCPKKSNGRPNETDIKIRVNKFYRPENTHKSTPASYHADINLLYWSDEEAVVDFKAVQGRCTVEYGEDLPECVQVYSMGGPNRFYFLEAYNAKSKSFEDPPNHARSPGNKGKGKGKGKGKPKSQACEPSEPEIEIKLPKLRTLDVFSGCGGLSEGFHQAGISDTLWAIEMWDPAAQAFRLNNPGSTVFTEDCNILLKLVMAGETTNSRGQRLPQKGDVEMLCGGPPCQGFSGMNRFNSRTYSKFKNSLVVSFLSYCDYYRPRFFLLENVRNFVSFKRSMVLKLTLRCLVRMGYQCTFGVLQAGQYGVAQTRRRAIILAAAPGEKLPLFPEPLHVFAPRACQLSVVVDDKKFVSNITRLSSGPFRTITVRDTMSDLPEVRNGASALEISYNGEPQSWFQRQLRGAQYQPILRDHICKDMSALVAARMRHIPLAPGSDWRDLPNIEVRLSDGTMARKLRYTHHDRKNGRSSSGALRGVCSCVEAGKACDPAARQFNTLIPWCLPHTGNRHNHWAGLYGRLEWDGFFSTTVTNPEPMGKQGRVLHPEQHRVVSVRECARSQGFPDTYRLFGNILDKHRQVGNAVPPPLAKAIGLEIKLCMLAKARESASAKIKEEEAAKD

With `Cc1cc(Nc2ccc(NC(=O)c3ccc([N+](=O)[O-])cc3)cc2)nc(N)n1` [Compound 8, N-[4-(2-Amino-6-methylpyrimidin-4-ylamino)phenyl]-4-nitrobenzamide], in assay [1], the inhibition at 20 µM came to 1%.

Take `Cc1cc(Nc2ccc(NC(=O)c3ccc(N)cc3)cc2)nc(N)n1` [Compound 9, N-[4-(2-Amino-6-methylpyrimidin-4-ylamino)phenyl]-4-aminobenzamide]: the inhibition at 20 µM in assay [1] was 0%.

For the compound `Cc1cc(Nc2ccc(NC(=O)c3ccc(Nc4ccncc4)cc3)cc2)nc(N)n1` [Compound 10, N-[4-(2-Amino-6-methylpyrimidin-4-ylamino)phenyl]-4-(pyridin-4-ylamino)benzamide], in assay [1], a half-maximal effect (EC50) was put at 13 µM, the inhibition at 10 µM came to 32% and the inhibition at 32 µM was determined as 91 ± 4%.

As to `Cc1cc(Nc2ccc(NC(=O)c3ccc(Nc4ncccn4)cc3)cc2)nc(N)n1` [Compound 11, N-[4-(2-Amino-6-methylpyrimidin-4-ylamino)-phenyl]-4-(pyrimidin-2-ylamino)benzamide], in assay [1], the inhibition at 10 µM was found to be 17% and the inhibition at 32 µM was 65 ± 3%.

On to `COc1nc(Nc2ccc(C(=O)Nc3ccc(Nc4cc(C)nc(N)n4)cc3)cc2)nc(OC)n1` [Compound 13, N-[4-(2-Amino-6-methylpyrimidin-4-ylamino)phenyl]-4-(4,6-dimethoxy-1,3,5-triazin-2-ylamino)benzamide], for which, in assay [1], the inhibition at 10 µM was 36% and the inhibition at 32 µM turned out to be 35%.

As for `Cc1cc(Nc2ccc(NC(=O)c3ccc(Nc4ncnc5ccccc45)cc3)cc2)nc(N)n1` [Compound 14, N-[4-(2-Amino-6-methylpyrimidin-4-ylamino)phenyl]-4-(quinazolin-4-ylamino)benzamide], in assay [1], the inhibition at 10 µM stood at 25% and the inhibition at 32 µM came to 19%.

Turning to `Cc1cc(Nc2ccc(NC(=O)c3ccc(Nc4ncnc5cc(F)ccc45)cc3)cc2)nc(N)n1` [Compound 15, N-[4-(2-Amino-6-methylpyrimidin-4-ylamino)phenyl]-4-(7-fluoroquinazolin-4-ylamino)benzamide], in assay [1], the inhibition at 10 µM is 19% and the inhibition at 32 µM turned out to be 6%.

`Cc1cc(Nc2ccc(NC(=O)c3ccc(Nc4cc(-c5ccccc5)nc5ccccc45)cc3)cc2)nc(N)n1` [Compound 16, N-[4-(2-Amino-6-methylpyrimidin-4-ylamino)phenyl]-4-(2-phenylquinolin-4-ylamino)benzamide]: the EC50 in assay [1] was 1.6 µM. Moreover, the inhibition at 10 µM in assay [1] amounted to 81 ± 5%. Moreover, the inhibition at 32 µM in assay [1] is 55 ± 10%. In addition, the “Fold reactivation of luciferase (CMV-luc)” value (shortened to “Fold reactivation”) in assay [2] (0.1 μM) is recorded as 1.0±0.1 fold; in assay [2] (1 μM), 1.3±0.1 fold; in assay [2] (3.2 μM), 5.5±1.3 fold; in assay [2] (5 μM), 6.0±2.0 fold; in assay [2] (10 μM) it was 6.1±2.7 fold.

For `Cc1cc(Nc2ccc(NC(=O)c3ccc(Nc4ncnc5nc[nH]c45)cc3)cc2)nc(N)n1` [Compound 17, N-[4-(2-Amino-6-methylpyrimidin-4-ylamino)phenyl]-4-(7H-purin-6-ylamino)benzamide], in assay [1], the inhibition at 10 µM is 8% and the inhibition at 20 µM is 3%.

For `CNc1ccc(C(=O)Nc2ccc(Nc3cc(C)nc(N)n3)cc2)cc1` [Compound 23, N-[4-(2-Amino-6-methylpyrimidin-4-ylamino)phenyl]-4-(methylamino)benzamide], in assay [1], the inhibition at 10 µM was 0% and the inhibition at 20 µM was determined as 0%.

Regarding `Cc1cc(Nc2ccc(C(=O)Nc3ccc(Nc4ccnc5ccccc45)cc3)cc2)nc(N)n1` [Compound 30, N-[4-(Quinolin-4-ylamino)phenyl]-4-(2-amino-6-methylpyrimidin-4-ylamino)benzamide], in assay [1], the inhibition at 10 µM stood at 56 ± 11% and the inhibition at 32 µM stood at 47 ± 1%. Also, the “DNMT1 degradation (in words)” value in assay [3] was “lower efficiency on DNMT1 degradation than SGI-1027”.

Regarding `O=C(Nc1ccc(Nc2ccnc3ccccc23)cc1)c1ccc(Nc2ccncc2)cc1` [Compound 31, N-[4-(Quinolin-4-ylamino)phenyl]-4-(pyridin-4-ylamino)benzamide], the EC50 in assay [1] was 0.9 µM; in assay [4], 15 ± 3 µM. Further, the “efficacy of hDNMT3A inhibition” value in assay [1] (maximal efficacy of the dose–response curve) turned out to be 90%. Moreover, in assay [1], the inhibition at 10 µM was determined as 73 ± 3%. For the same compound, the inhibition at 32 µM in assay [1] turned out to be 75 ± 8%. In addition, the IC50 in assay [5] was found to be 28 ± 4 µM. Moreover, the “Fold reactivation” value in assay [2] (0.1 μM) is on record as 1.1±0.1 fold; in assay [2] (0.32 μM), 1.3±0.2 fold; in assay [2] (0.5 μM), 1.6±0.3 fold; in assay [2] (1 μM), 2.0±0.2 fold; in assay [2] (3.2 μM), 3.9±0.3 fold; in assay [2] (5 μM), 3.9±0.1 fold. In addition, in assay [2] (10 μM), the “Fold reactivation” value is 3.2±0.5 fold. Further, the “concentration from which luciferase expression was reactivated” value in assay [2] was not below 1 µM.

On to `Nc1cc(Nc2ccc(C(=O)Nc3ccc(Nc4ccnc5ccccc45)cc3)cc2)nc(N)n1` [Compound 32, N-[4-(Quinolin-4-ylamino)phenyl]-4-(2,6-diaminopyrimidin-4-ylamino)benzamide], for which the “plateau of DNMT3A inhibition” value in assay [1] (plateau between 32 and 1 μM, no dose–response curve (data not shown)) was 50%. Also, in assay [1], the inhibition at 10 µM was determined as 53 ± 8% and the inhibition at 32 µM was 53 ± 13%.

Consider `O=C(Nc1ccc(Nc2ccnc3ccccc23)cc1)c1ccc(Nc2cc(-c3ccccc3)nc3ccccc23)cc1` [Compound 33, N-[4-(Quinolin-4-ylamino)phenyl]-4-(2-phenylquinolin-4-ylamino)benzamide], for which, in assay [1], the inhibition at 10 µM came to 29% and the inhibition at 32 µM amounted to 46%.

As to `O=C(Nc1ccc(Nc2ccncc2)cc1)c1ccc(Nc2ccncc2)cc1` [Compound 36, N-[4-(Pyridin-4-ylamino)phenyl]-4-(pyridin-4-ylamino)benzamide], in assay [1], the inhibition at 10 µM was found to be 18% and the inhibition at 32 µM came out at 54 ± 5%.

In the case of `O=C(Nc1ccc(Nc2ccnc3ccccc23)cc1)c1ccc(Nc2ccnc3ccccc23)cc1` [Compound 37, N-[4-(Quinolin-4-ylamino)phenyl]-4-(quinolin-4-ylamino)benzamide], in assay [1], the inhibition at 10 µM is 39% and the inhibition at 32 µM was 29%.

On to `O=C(Nc1ccc(Nc2c3ccccc3nc3ccccc23)cc1)c1ccc(Nc2c3ccccc3nc3ccccc23)cc1` [Compound 38, N-[4-(Acridin-9-ylamino)phenyl]-4-(acridin-9-ylamino)benzamide], for which, in assay [1], the inhibition at 10 µM was determined as 48 ± 8% and the inhibition at 32 µM came out at 62 ± 22%.

For the compound `Cc1cc(Nc2ccc(NC(=O)c3ccc(Nc4ccnc5ccccc45)cc3)cc2)nc(N)n1` [SGI-1027, N-(4-(2-amino-6-methylpyrimidin-4-ylamino)phenyl)-4-(quinolin-4-ylamino)benzamide, reference compound], in assay [1], the inhibition at 10 µM was found to be 74 ± 5% and the inhibition at 32 µM turned out to be 76 ± 5%.

As to “N-[4-(2-Amino-6-methylpyrimidin-4-ylamino)-phenyl]-4-(pyridin-4-ylmethylamino)benzamide [Compound 25]”, the figures for the “Inhibition [%] of DNMT3A catalytic activity” value in assay [1] (10 μM compound) and in assay [1] (32 μM compound) were 0% and 4%, respectively.

For the compound “N-[4-(2-Amino-6-methylpyrimidin-4-ylamino)phenyl]-4-(pyridin-3-ylmethylamino)benzamide [Compound 24]”, the “Inhibition [%] of DNMT3A catalytic activity” value in assay [1] (10 μM compound) came out at 0%.
